Assay results published in patent US10570122B2, “Compounds with anti-tumoral activity” (AB Science, priority 2015, dated 2020).

Experiments:
HL60 = assay: CellTiter-Blue cell-based survival/proliferation assay, HL60; conditions: Homo sapiens, HL-60, Leukemia cell line HL60, 48 h, read-out: Anti-tumoral activity (measured IC50) HL60
Procedure, shortened: (§1)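 Tenfold compound dilutions (0–10 μM) were added to 1·10^4 cells/well. Plates incubated 48 h at 37 °C. CellTiter-Blue reduction (4 h, 37 °C) was read as fluorescence at 590 nm, background-corrected with a cell-free blank.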

HUT78 = assay: CellTiter-Blue cell-based survival/proliferation assay, HUT78; conditions: Homo sapiens, Lymphoma cell line HUT78, 48 h, read-out: Anti-tumoral activity (measured IC50) HUT78
Procedure, shortened: as §1

KARPAS299 = assay: CellTiter-Blue cell-based survival/proliferation assay, KARPAS299; conditions: Homo sapiens, KARPAS-299, Lymphoma cell line KARPAS299, 48 h, read-out: Anti-tumoral activity (measured IC50) KARPAS299
Procedure, shortened: as §1

REC1 = assay: CellTiter-Blue cell-based survival/proliferation assay, REC1; conditions: Homo sapiens, Lymphoma cell line REC1, 48 h, read-out: Anti-tumoral activity (measured IC50) REC1
Procedure, shortened: as §1

OPM2 = assay: CellTiter-Blue cell-based survival/proliferation assay, OPM2; conditions: Homo sapiens, OPM-2, Myeloma cell line OPM2, 48 h, read-out: Anti-tumoral activity (measured IC50) OPM2
Procedure, shortened: as §1

A375 = assay: CellTiter-Blue cell-based survival/proliferation assay, A375; conditions: Homo sapiens, A-375; A375 melanoma cell line, 48 h
Protocol: (§2) Cell-Based Proliferation Screening of Compounds
(§3) CellTiter-Blue cell-based survival/proliferation assay (Promega G8080) was performed on tumor cell lines. A total of 1·10^4 cells/well/50 μl were seeded in a 96-wells plate. Treatment was initiated by addition of a 2× drug solution of 1/10 serial dilutions ranging from 0 to 10 μM. Cells were grown for 48 h at 37° C. and then incubated with 10 μl/well of Promega CellTiter-Bleue reagent for 4 h at 37° C. The amount of resorufin dye formed was quantified by its fluorescence emission at 590 nm using a scanning multiwell spectrophotometer (OPTIMA, BMG labtech, France). A blank well without cells was used as a background control for the spectrophotometer.

A4513 = assay: CellTiter-Blue cell-based survival/proliferation assay, A4513; conditions: Homo sapiens; A4513 Ewing cell line, 48 h
Protocol: as §2, §3

A498 = assay: CellTiter-Blue cell-based survival/proliferation assay, A498; conditions: Homo sapiens; A498 kidney tumor cell line, 48 h
Procedure, shortened: as §1

A549 = assay: CellTiter-Blue cell-based survival/proliferation assay, A549; conditions: Homo sapiens; A549 lung tumor cell line, 48 h
Procedure, shortened: as §1

ACHN = assay: CellTiter-Blue cell-based survival/proliferation assay, ACHN; conditions: Homo sapiens; ACHN kidney tumor cell line, 48 h
Procedure, shortened: as §1

AGS = assay: CellTiter-Blue cell-based survival/proliferation assay, AGS; conditions: Homo sapiens; AGS stomach tumor cell line, 48 h
Procedure, shortened: as §1

BT20 = assay: CellTiter-Blue cell-based survival/proliferation assay, BT20; conditions: Homo sapiens, BT-20; BT20 breast tumor cell line, 48 h
Procedure, shortened: as §1

BXPC3 = assay: CellTiter-Blue cell-based survival/proliferation assay, BXPC3; conditions: Homo sapiens, BXPC-3; BXPC3 pancreas tumor cell line, 48 h
Procedure, shortened: as §1

CALU6 = assay: CellTiter-Blue cell-based survival/proliferation assay, CALU6; conditions: Homo sapiens, Calu-6; CALU6 lung tumor cell line, 48 h
Procedure, shortened: as §1

CLS354 = assay: CellTiter-Blue cell-based survival/proliferation assay, CLS354; conditions: Homo sapiens, CLS-354; CLS354_4 head & neck tumor cell line, 48 h
Procedure, shortened: as §1

DLD1 = assay: CellTiter-Blue cell-based survival/proliferation assay, DLD1; conditions: Homo sapiens, DLD-1; DLD_1 colorectal tumor cell line, 48 h
Procedure, shortened: as §1

DU145 = assay: CellTiter-Blue cell-based survival/proliferation assay, DU145; conditions: Homo sapiens, DU-145; DU145 prostate tumor cell line, 48 h
Procedure, shortened: as §1

H1299 = assay: CellTiter-Blue cell-based survival/proliferation assay, H1299; conditions: Homo sapiens, NCI-H1299; H1299 lung tumor cell line, 48 h
Procedure, shortened: as §1

HCT116 = assay: CellTiter-Blue cell-based survival/proliferation assay, HCT116; conditions: Homo sapiens, HCT-116; HCT116 colorectal tumor cell line, 48 h
Procedure, shortened: as §1

HEP2 = assay: CellTiter-Blue cell-based survival/proliferation assay, HEP2; conditions: Homo sapiens, HEp-2; HEP2 head & neck tumor cell line, 48 h
Procedure, shortened: as §1

HEPG2 = assay: CellTiter-Blue cell-based survival/proliferation assay, HEPG2; conditions: Homo sapiens; HEPG2 liver tumor cell line, 48 h
Procedure, shortened: as §1

HGC27 = assay: CellTiter-Blue cell-based survival/proliferation assay, HGC27; conditions: Homo sapiens, HGC-27; HGC27 stomach tumor cell line, 48 h
Procedure, shortened: as §1

MDAMB231 = assay: CellTiter-Blue cell-based survival/proliferation assay, MDAMB231; conditions: Homo sapiens, MDA-MB-231; MDAMB231 breast tumor cell line, 48 h
Procedure, shortened: as §1

MELWO = assay: CellTiter-Blue cell-based survival/proliferation assay, MELWO; conditions: Homo sapiens; MEL_WO melanoma cell line, 48 h
Protocol: as §2, §3

MESSA = assay: CellTiter-Blue cell-based survival/proliferation assay, MESSA; conditions: Homo sapiens, MES-SA; MESSA ovary tumor cell line, 48 h
Procedure, shortened: as §1

PANC1 = assay: CellTiter-Blue cell-based survival/proliferation assay, PANC1; conditions: Homo sapiens, PANC-1; PANC_1 pancreas tumor cell line, 48 h
Procedure, shortened: as §1

PC3 = assay: CellTiter-Blue cell-based survival/proliferation assay, PC3; conditions: Homo sapiens, PC-3; PC3 prostate tumor cell line, 48 h
Procedure, shortened: as §1

PLCPRF5 = assay: CellTiter-Blue cell-based survival/proliferation assay, PLCPRF5; conditions: Homo sapiens, PLC-PRF-5; PLC_PRF5 liver tumor cell line, 48 h
Procedure, shortened: as §1

SW579 = assay: CellTiter-Blue cell-based survival/proliferation assay, SW579; conditions: Homo sapiens; SW579 head & neck tumor cell line, 48 h
Procedure, shortened: as §1

TOV112D = assay: CellTiter-Blue cell-based survival/proliferation assay, TOV112D; conditions: Homo sapiens; TOV112D ovary tumor cell line, 48 h
Procedure, shortened: as §1

U118 = assay: CellTiter-Blue cell-based survival/proliferation assay, U118; conditions: Homo sapiens; U118 glioblastoma cell line, 48 h
Protocol: as §2, §3

U2OS = assay: CellTiter-Blue cell-based survival/proliferation assay, U2OS; conditions: Homo sapiens; U2OS osteosarcoma cell line, 48 h
Protocol: as §2, §3

U87MG = assay: CellTiter-Blue cell-based survival/proliferation assay, U87MG; conditions: Homo sapiens, U-87 MG; U87_MG glioblastoma cell line, 48 h
Protocol: as §2, §3

Cc1ccc(C(=O)NCCN2CCOCC2)cc1Nc1ncc(-c2ccc(-n3cccn3)cc2)o1 [Example 005, 4-Methyl-N-(2-morpholin-4-yl-ethyl)-3-[5-(4-pyrazol-1-yl-phenyl)-oxazol-2-ylamino]-benzamide]
IC50 (HL60): > 1 µM | IC50 (HUT78): > 1 µM | IC50 (KARPAS299): > 1 µM | IC50 (REC1): > 1 µM | IC50 (OPM2): > 1 µM | IC50 (A375): > 1 µM | IC50 (A4513): > 1 µM | IC50 (A498): > 1 µM | IC50 (A549): > 1 µM | IC50 (ACHN): > 1 µM | IC50 (AGS): > 1 µM | IC50 (BT20): > 1 µM | IC50 (BXPC3): > 1 µM | IC50 (CALU6): > 1 µM | IC50 (CLS354): > 1 µM | IC50 (DLD1): > 1 µM | IC50 (DU145): > 1 µM | IC50 (H1299): > 1 µM | IC50 (HCT116): > 1 µM | IC50 (HEP2): > 1 µM | IC50 (HEPG2): > 1 µM | IC50 (HGC27): > 1 µM | IC50 (MDAMB231): > 1 µM | IC50 (MELWO): > 1 µM | IC50 (MESSA): > 1 µM | IC50 (PANC1): > 1 µM | IC50 (PC3): > 1 µM | IC50 (PLCPRF5): > 1 µM | IC50 (SW579): > 1 µM | IC50 (TOV112D): > 1 µM | IC50 (U118): > 1 µM | IC50 (U2OS): > 1 µM | IC50 (U87MG): > 1 µM

CCOCc1ccc(C)c(Nc2nnc(-c3ccc(N4CCNC4=O)cc3)o2)c1 [Example 008, 1-{4-[5-(5-Ethoxymethyl-(2-methyl-phenylamino))-[1,3,4]oxadiazol-2-yl]-phenyl}-imidazolidin-2-one]
IC50 (HL60): ≤ 0.1 µM | IC50 (HUT78): ≤ 0.1 µM | IC50 (KARPAS299): ≤ 0.1 µM | IC50 (REC1): ≤ 0.1 µM | IC50 (OPM2): ≤ 0.1 µM | IC50 (A375): ≤ 0.1 µM | IC50 (A4513): > 1 µM | IC50 (A498): > 1 µM | IC50 (ACHN): ≤ 0.1 µM | IC50 (AGS): > 1 µM | IC50 (BT20): > 1 µM | IC50 (BXPC3): > 1 µM | IC50 (CALU6): > 1 µM | IC50 (CLS354): 0.1 to 0.5 µM | IC50 (DLD1): > 1 µM | IC50 (DU145): > 1 µM | IC50 (H1299): > 1 µM | IC50 (HCT116): ≤ 0.1 µM | IC50 (HEP2): ≤ 0.1 µM | IC50 (HEPG2): > 1 µM | IC50 (HGC27): 0.5 to 1 µM | IC50 (MDAMB231): > 1 µM | IC50 (MELWO): 0.5 to 1 µM | IC50 (MESSA): > 1 µM | IC50 (PANC1): > 1 µM | IC50 (PC3): ≤ 0.1 µM | IC50 (PLCPRF5): > 1 µM | IC50 (SW579): 0.5 to 1 µM | IC50 (TOV112D): ≤ 0.1 µM | IC50 (U118): > 1 µM | IC50 (U2OS): > 1 µM | IC50 (U87MG): > 1 µM

CCOCc1ccc(C)c(Nc2nnc(-c3ccc(-n4cccn4)cc3)o2)c1 [Example 009, (5-Ethoxymethyl-2-methyl-phenyl)-[5-(4-pyrazol-1-yl-phenyl)-[1,3,4]oxadiazol-2-yl]-amine]
IC50 (HL60): > 1 µM | IC50 (OPM2): > 1 µM | IC50 (A375): > 1 µM | IC50 (A4513): > 1 µM | IC50 (A498): > 1 µM | IC50 (A549): > 1 µM | IC50 (ACHN): > 1 µM | IC50 (AGS): > 1 µM | IC50 (BT20): > 1 µM | IC50 (BXPC3): > 1 µM | IC50 (CALU6): > 1 µM | IC50 (CLS354): > 1 µM | IC50 (DLD1): > 1 µM | IC50 (DU145): > 1 µM | IC50 (H1299): > 1 µM | IC50 (HCT116): > 1 µM | IC50 (HEP2): > 1 µM | IC50 (HEPG2): > 1 µM | IC50 (HGC27): > 1 µM | IC50 (MDAMB231): > 1 µM | IC50 (MELWO): > 1 µM | IC50 (MESSA): > 1 µM | IC50 (PANC1): > 1 µM | IC50 (PC3): > 1 µM | IC50 (PLCPRF5): > 1 µM | IC50 (SW579): > 1 µM | IC50 (TOV112D): > 1 µM | IC50 (U118): > 1 µM | IC50 (U2OS): > 1 µM | IC50 (U87MG): > 1 µM
